Experimental data: patent US20160213003A1, “APPLICATION OF POLYOXOMETALATE IN PREPARATION OF DISINFECTANT FOR STERILIZING AND REMOVING FORMALDEHYDE” (NINGBO YUCHEN ENVIROCLEAN TECH CO., LTD., priority 2013, published 2016)

System: Staphylococcus aureus
Assay: Kirby-Bauer diffusion detection of sterilizing capability (inhibition zone diameter)
Type: cell-based
Conditions: for sterilization effect without oxygen ventilation (diameter, mm): pH 10, no oxygen ventilation
Protocol: In catalyst screening, Staphylococcus aureus was used as the microorganisms, and a trypsin soybean agar was used as a culture medium. The material powder to be screened was prepared into a homogeneous mixture solution by pure water in a 3% weight/volume ratio (i.e., 3 g powder/100 mL water), then immersed with a neutral precise filtration filter paper of 5 mm diameter for about 10 seconds, then placed into a Kirby-Bauer diffusion detection plate. A Kirby-Bauer diffusion detection plate was placed in a sealed glass cover, and the air was provided into the glass cover at a speed of about 10 liters per minute. The sterilizing capability of the catalyst was measured by the diameter of the zone without bacterial growth around the filter paper. A variety of polyoxometalates were respectively prepared into a water solution with a 3% mass concentration, and pH was controlled to 10. The sterilizing capability was also detected by Kirby-Bauer diffusion detection method in which Staphylococcus aureus was used as the microorganisms, respectively including no oxygen ventilation and oxygen ventilation. When oxygen was ventilated, the condition for oxygen ventilation was the same, the temperature was room temperature (25° C.) and 37° C. […] Potassium polytungstate (K3[PW12O40]) was respectively prepared into water solutions with mass concentration of 0.5%, 1.0%, 2.0%, 3%, 5%, 10%, and 15%, and the pH were controlled to 10. The sterilizing capability was also detected by Kirby-Bauer diffusion detection method in which Staphylococcus aureus was used as the microorganisms, the condition for oxygen ventilation was the same, and the temperature was room temperature (25° C.) and 37° C. […] Potassium polytungstate (K3[PW12O40]) was respectively prepared into water solutions with a concentration of 3% and pH of 6, 7, 8, 8.5, 9, 9.5, 10, 10.5, 11, 11.5, 12. The sterilizing capability was also detected by Kirby-Bauer diffusion detection method in which Staphylococcus aureus was used as the microorganisms, the condition for oxygen ventilation was the same, and the temperature was room temperature (25° C.) and 37° C.

[1] = 3% water solution, pH 10, oxygen ventilation, 25° C.
[2] = 3% water solution, pH 10, oxygen ventilation, 37° C.

Q: What does the source list for Na3[PW12O40]?
A: sterilization effect without oxygen ventilation (diameter, mm) (3% water solution): 3 mm; sterilization effect at 25° C. (diameter, mm) [1]: 19 mm; sterilization effect at 37° C. (diameter, mm) [2]: 18 mm

Q: What does the source list for Potassium polytungstate [K3[PW12O40]]?
A: sterilization effect at 25° C. (diameter, mm) (3% water solution, pH 6, oxygen ventilation, 25° C.): 5 mm; sterilization effect at 37° C. (diameter, mm) (3% water solution, pH 6, oxygen ventilation, 37° C.): 6 mm; sterilization effect at 25° C. (diameter, mm) (3% water solution, pH 7, oxygen ventilation, 25° C.): 6 mm; sterilization effect at 37° C. (diameter, mm) (3% water solution, pH 7, oxygen ventilation, 37° C.): 8 mm; sterilization effect at 25° C. (diameter, mm) (3% water solution, pH 8, oxygen ventilation, 25° C.): 8 mm; sterilization effect at 37° C. (diameter, mm) (3% water solution, pH 8, oxygen ventilation, 37° C.): 11 mm; sterilization effect at 25° C. (diameter, mm) (3% water solution, pH 8.5, oxygen ventilation, 25° C.): 14 mm; sterilization effect at 37° C. (diameter, mm) (3% water solution, pH 8.5, oxygen ventilation, 37° C.): 15 mm; sterilization effect at 25° C. (diameter, mm) (3% water solution, pH 9, oxygen ventilation, 25° C.): 17 mm; sterilization effect at 37° C. (diameter, mm) (3% water solution, pH 9, oxygen ventilation, 37° C.): 18 mm; sterilization effect at 25° C. (diameter, mm) (3% water solution, pH 9.5, oxygen ventilation, 25° C.): 20 mm; sterilization effect at 37° C. (diameter, mm) (3% water solution, pH 9.5, oxygen ventilation, 37° C.): 19 mm; sterilization effect without oxygen ventilation (diameter, mm) (3% water solution): 3 mm; sterilization effect at 25° C. (diameter, mm) [1]: 19 mm; sterilization effect at 25° C. (diameter, mm) (3% water solution, pH 10, oxygen ventilation, 25° C. (pH series)): 19 mm; sterilization effect at 37° C. (diameter, mm) [2]: 19 mm; sterilization effect at 37° C. (diameter, mm) (3% water solution, pH 10, oxygen ventilation, 37° C. (pH series)): 19 mm; sterilization effect at 25° C. (diameter, mm) (3% water solution, pH 10.5, oxygen ventilation, 25° C.): 18 mm; sterilization effect at 37° C. (diameter, mm) (3% water solution, pH 10.5, oxygen ventilation, 37° C.): 19 mm; sterilization effect at 25° C. (diameter, mm) (3% water solution, pH 11, oxygen ventilation, 25° C.): 20 mm; sterilization effect at 37° C. (diameter, mm) (3% water solution, pH 11, oxygen ventilation, 37° C.): 20 mm; sterilization effect at 25° C. (diameter, mm) (3% water solution, pH 11.5, oxygen ventilation, 25° C.): 20 mm; sterilization effect at 37° C. (diameter, mm) (3% water solution, pH 11.5, oxygen ventilation, 37° C.): 20 mm; sterilization effect at 25° C. (diameter, mm) (3% water solution, pH 12, oxygen ventilation, 25° C.): 20 mm; sterilization effect at 37° C. (diameter, mm) (3% water solution, pH 12, oxygen ventilation, 37° C.): 20 mm; sterilization effect at 25° C. (diameter, mm) (concentration 0.5%, pH 10, oxygen ventilation, 25° C.): 8 mm; sterilization effect at 37° C. (diameter, mm) (concentration 0.5%, pH 10, oxygen ventilation, 37° C.): 9 mm; sterilization effect at 25° C. (diameter, mm) (concentration 1.0%, pH 10, oxygen ventilation, 25° C.): 11 mm; sterilization effect at 37° C. (diameter, mm) (concentration 1.0%, pH 10, oxygen ventilation, 37° C.): 10 mm; sterilization effect at 25° C. (diameter, mm) (concentration 2.0%, pH 10, oxygen ventilation, 25° C.): 14 mm; sterilization effect at 37° C. (diameter, mm) (concentration 2.0%, pH 10, oxygen ventilation, 37° C.): 16 mm; sterilization effect at 25° C. (diameter, mm) (concentration 3.0%, pH 10, oxygen ventilation, 25° C.): 16 mm; sterilization effect at 37° C. (diameter, mm) (concentration 3.0%, pH 10, oxygen ventilation, 37° C.): 18 mm; sterilization effect at 25° C. (diameter, mm) (concentration 5%, pH 10, oxygen ventilation, 25° C.): 18 mm; sterilization effect at 37° C. (diameter, mm) (concentration 5%, pH 10, oxygen ventilation, 37° C.): 19 mm; sterilization effect at 25° C. (diameter, mm) (concentration 10%, pH 10, oxygen ventilation, 25° C.): 20 mm; sterilization effect at 37° C. (diameter, mm) (concentration 10%, pH 10, oxygen ventilation, 37° C.): 20 mm; sterilization effect at 25° C. (diameter, mm) (concentration 15%, pH 10, oxygen ventilation, 25° C.): 19 mm; sterilization effect at 37° C. (diameter, mm) (concentration 15%, pH 10, oxygen ventilation, 37° C.): 18 mm
